# Test results published in patent US12559784B2 (priority 2023, dated 2026).
# Where “and” joins values, the source holds several entries; their conditions need not be identical. Equal values may be shown once. Read-outs that look alike come from different tables or passages of the source.
# What was measured:
# [1] = test system: alkaline phosphatase; format: biochemical; details: PBS; 18 hours room temperature, PNPP 1 hour
# From the text: Our next study compared different dilutions of the original alkaline phosphatase source (1:10 [Activity: 1,000 units] and 1:100 [100 units]) and two sources of alkaline phosphatase, both purchased from Sigma Aldrich (St. Louis, MO). […] The five conditions for this study included original alkaline phosphatase (1:1), original alkaline phosphatase (1:10), original alkaline phosphatase (1:100), new alkaline phosphatase (1:1), and the blanks (phosphate buffered saline (PBS)). […] The two controls contained ink to determine if there would be any background effect.
# Preparation • 1. Alkaline phosphatase reaction reagent • a. Original AP • i. Add 1 mL PBS into AP vial, pipette re-pipette 10 times, then invert with cap on, to mix well. Take this 1 mL and add to 50 mL conical tube filled with 40 mL PBS. Invert to mix 10 times, vortex mix, let sit 2 minutes, invert to mix again 10 times • ii. Prepare 2 more 50 mL conical tubes • 1. 1:10 • a. […] 1:100 • a. Take 4 mL of solution made above, add to 36 mL PBS. […] New AP • i. Add 400 mg into a 50 mL conical tube filled with 40 mL PBS. Invert to mix 10 times, vortex mix, let sit 2 minutes, invert to mix 10 more times. Check to make sure all suspended. If not, vortex mix and invert until fully suspended. • 2. Prepare 24-well plates • 3. […] Aliquot with 200 μL PNPP Conditions • 1. Old AP • 2. Old AP (1:10) • 3. Old AP (1:100) • 4. New AP • 5. Blank (PBS only) Procedure • 1. 24-well plates • a. Add 1 mL (using P1000, blue tips) of the prepared PBS-AP to the plate (for each condition) • b. Add 100 μL of the test material to the well, mix with the same pipette tip, dispose and repeat for the rest of the test materials • c. Wrap the plate in saran wrap and place into the container • d. […] To the prepared 96-well plate with 200 μL PNPP or PBS, add 20 μL from the 24-well plate • 3. Incubate for 1 hour • 4.
# [2] = test system: alkaline phosphatase; format: biochemical
# Protocol: New stocks were made the of the 1:100 alkaline phosphatase reaction reagents.
# The conditions included: 1:100 dilution of alkaline phosphatase reaction reagent with two solvents (buffered saline and ethanol), dosing in 0.5 mL microcentrifuge tubes with 20 μL of chemical added to 180 μL of reaction reagent, and incubating with p-Nitrophenyl phosphate disodium salt (PNPP) substrate for 1-hour.
# [3] = test system: alkaline phosphatase; details: 30 μL chemical in 300 μL reagent 1:100, 4 hours room temperature, 3 mL PNPP 1 hour
# Protocol: We changed the test chemical dosage to 30 μL and the alkaline phosphatase reaction reagent to 300 μL, but kept the incubation to 4 hours at room temperature.
# PBS: Take 4 mL of AP (1:10) stock solution, add to 36 mL PBS. Vortex mix and then invert to mix 10 times • ii. […] Vortex mix and then invert to mix 10 times • b. PBS (lx) • c. […] Prepare 4 mL glass vials for dosing • a. Four sets • i. R1+ (PBS-AP) • ii. R1− (PBS) • iii. […] Prepare 96-well plates for PNPP reading (3 wells for each test chemical) Procedure • 1. Aliquot 300 μL of each reaction reagent to 4 mL glass vials. • 2. Add 30 μL of the test sample to each 4 mL glass vial. • 3. Incubate at room temperature for 4 hours. • 4. Aliquot 3 mL of PNPP to each 4 mL glass vial, let sit for 1 hr. • a. Aliquot 750 μL into the 4 mL glass vial to stop the reaction. • 5.
# [4] = test system: skin; details: cited from earlier work; for in vivo GHS: skin
# [5] = cited from earlier work
# [6] = test system: alkaline phosphatase; assay: Alkaline phosphatase experiment, seventh week: 1:100 vs 1:1000 dilution, room temperature vs 37° C.
# Protocol: Preparation • 1. Alkaline phosphatase reaction reagent • a. 1:100 • i. PBS: Take 400 μL of AP (1:10) stock solution, add to 3.6 mL PBS. Vortex mix and then invert to mix 10 times • ii. […] Vortex mix and then invert to mix 10 times • b. 1:1000 • i. PBS: Take 400 μL of AP (1:100) stock solution, add to 3.6 mL PBS. Vortex mix and then invert to mix 10 times • ii. […] Vortex mix and then invert to mix 10 times • 2. Prepare 0.5 mL microcentrifuge tubes for dosing • a. One set for room temperature, one set for 37° C. • 3. Prepare 96-well plates for PNPP reading (3 wells for each test chemical) • a. Aliquot with 200 μL PNPP Conditions • 1. 1:100 in PBS at RT • 2. […] 1:100 in PBS at 37° C. • 4. […] 1:1000 in PBS at RT • 6. […] 1:1000 in PBS at 37° C. • 8. […] Procedure • 1. In each microcentrifuge tube for each condition, add 180 μL of the corresponding AP reaction reagent • 2. Add 20 μL of the test chemical to each microcentrifuge tube • 3. Incubate for 4 hours (one set at room temperature; one set at 37° C.) • 4. To prepared 96-well plates with 200 μL PNPP aliquoted, add 20 μL of each microcentrifuge tube to the corresponding well • 5.
# [7] = test system: alkaline phosphatase; format: biochemical; details: 3-hour exposure
# [8] = test system: porcine skin; details: fresh porcine skin; 140 μL test chemical; R 1 and 2; >3A = outside readable range
# Protocol: Our initial studies involved using fresh and frozen porcine skin “buttons”. These buttons were punched out of porcine skin (Spear Products, Cooopersburg, PA) using a […] biopsy punch tool. Three different kinds of skin buttons were prepared from fresh porcine skin, frozen porcine skin, and frozen porcine skin with the fatty layer removed. […] The next day, the tubes were taken out and vortexed and 500 μL of the solution was aliquoted into cuvettes to read at three different optical density wavelengths (OD190, OD290, OD300) to evaluate the best response.
# Skin Preparation • 1. Thaw 2 pieces of frozen porcine skin • 2. Punch out buttons: 24 buttons in each tube filled with 40 mL PB S-Azide 96-well plate Preparation • 1. Plate layout for dosing:
# Procedure • 1. Dose each tissue with 140 μL of test chemical • 2. […] Take out of incubator and vortex pulse 3× • 2. Aliquot 500 μL to cuvette and read results at OD190, OD290, and OD300
# There were three readings done at an optical density of 190, 290, and 300 nm to evaluate the best response. […] To address the variable exposure conditions, our next studies involved placing a larger porcine skin section into a holder that exposes only the epidermis side with no potential for test chemical exposure from the backside or through the sides.
# [9] = test system: alkaline phosphatase; assay: Alkaline phosphatase experiment, third week: with and without discs; format: biochemical; details: 405 nm, 100 μL chemical, 18 hours 37° C., PNPP 1 hour
# From the text: Our next study focused on an in vitro method of detecting the potential of dermal corrosives to inhibit nonspecific phosphatases that may be released from the skin. We decided to test pure […] instead of relying on endogenous skin phosphatase. Alkaline phosphatase (Sigma Aldrich, St. Louis, MO) was purchased and suspended to make the reaction reagent (10,000 units). […] We note that the ratio used was 0.1 g/ml or 10% chemical—which is far in excess of any pharmaceutical applications. We further note that pharmaceutical enzyme inhibition tests, studies an use involve highly specific active site binding and these assays are conducted at ratios of micrograms-femtograms per ml. These studies are done at these ranges because these are the realistic concentrations for drug applications and therapeutics. […] So when a 50 Kg human consumes the tables, the tissues will be exposed at a 5 mg/50 kg=0.1 mg/kg=0.0000001 g/ml.
# Next two quantitative methods were evaluated: 1) using the discs parts from our OptiSafe™ test method and 2) directly into the 24-well plate.
# Preparation • 1. Alkaline phosphatase reaction reagent • a. Take 1 vial of AP, add 1 mL of PBS, mix by pipette/re-pipette 10 times • b. To a 50 mL conical tube, add 1 mL of the AP solution prepared above and 40 mL of PBS • 2. Prepare two 24-well plates (1 with discs, 1 without discs) • 3. […] Aliquot 200 μL PNPP and PBS Procedure • 1. Plate 1 (No Discs) • a. Add 1.25 mL from the prepared PBS-AP conical tube to each well (11 wells) • b. Add 100 μL of the test material to the well, mix with the same pipette tip, dispose and repeat for the rest of the test materials • c. Wrap the plate in saran wrap and place into the container • 2. Plate 2 (Discs) • a. Configure the 11 discs in the plate so the plate cover is stable • b. Add 1.25 mL from the prepared PBS-AP conical tube to each well (11 wells) • c. Add 100 μL of the test material to the center of the disc and repeat for the rest of the test materials • d. Put the plate cover on and place into the container • 3. […] Incubate for 1 hour Reading Results • 1. Measure at OD405
# [10] = test system: alkaline phosphatase; format: biochemical; remark: listed apart in the source
# Protocol: For the new study, the alkaline phosphatase was suspended in phosphate buffered saline (PBS) to make the reaction reagent. Then, 100 μL of the test chemical is added directly into the corresponding wells on a 24-well plate with 1.25 mL of alkaline phosphatase reaction reagent already aliquoted.
# Preparation • 1. Alkaline phosphatase reaction reagent • a. Take 1 vial of AP, add 1 mL of PBS, mix by pipette/re-pipette 10 times • b. To a 50 mL conical tube, add 1 mL of the AP solution prepared above and 40 mL of PBS • 2. Prepare two 24-well plates • 3. […] Aliquot with 200 μL PNPP and PBS • 4. Prepare glass vials Repeat Procedure from 1-3-23 • 1. 24-well plate • a. Add 1.25 mL from the prepared PBS-AP conical tube to each well (11 wells) • b. Add 100 μL of the test material to the well, mix with the same pipette tip, dispose and repeat for the rest of the test materials • c. Wrap the plate in saran wrap and place into the container • 2. […] To the prepared 96-well plate with 200 μL PNPP or PBS, add 20 μL from the 24-well plate • 4. Incubate for 1 hour • 5. […] 24-well plate • a. Add 1.25 mL from the prepared PBS-AP conical tube to each well (11 wells) • b. Add 100 μL of the test material to the well, mix with the same pipette tip, dispose and repeat for the rest of the test materials • c. After 10 minutes, mix each well • 2. To the prepared 96-well plate with 200 μL PNPP or PBS, add 20 μL from the 24-well plate • 3. […] Aliquot 200 μL from the 24-well plate to glass vials filled with 2 mL of PNPP
# [11] = test system: phosphatase; format: biochemical, porcine
# Protocol: Our next studies involved applying the test substance (500 μL) directly to the epidermis side of previously frozen porcine skin (Spear Products, Coopersburg, PA) that is placed in a holder that only exposes the epidermis side for 30 minutes, adding phosphate buffered saline (PBS) with added sodium azide (metabolic inhibitor that ensure no viable tissue), then aliquoting into cuvettes to read at an optical density of 300 nm. […] So, at the end of the initial studies described above, almost out of frustration, we tried to probe for released phosphatase activity using p-Nitrophenyl phosphate disodium salt (PNPP; Sigma Aldrich, St. Louis, MO) substrate solution to detect any presence of phosphatase.
# Preparation • 1. Thaw 2 pieces of frozen porcine skin • a. Punch out as many skin discs and mount in holders • 2. Label cuvettes (3 for each chemical) Procedure • 1. Add 500 μL of test chemical to holder; incubate at room temperate for 30 minutes • 2. After 30 minutes, add 2 mL of PBS-Azide to both the holder containing the test chemical; forcefully pipette and re-pipette 10 times • 3. From the holder, aliquot 400 μL into 3 cuvettes; forcefully pipette and re-pipette 3 times before dispensing into cuvettes Reading Results • 1. Measure at OD300 for all cuvettes
# Skin corrosion by GHS Category 1 dermal corrosive chemicals results in the disintegration of the epidermis into the dermis.
# [12] = chemical lists of the experiments
# [13] = 10 minutes test chemical exposure
SMILES,"OD405 readings, original alkaline phosphatase 1:100 (FIG. 6D) [1]",A2 - Results AVG [2],A2 - Results R1 [2],A2 - Results R3 [2],"OD405 readings, buffered saline alkaline phosphatase reaction reagent, glass vials (FIG. 11B) [3]","OD405 readings, ethanol alkaline phosphatase reaction reagent, glass vials (FIG. 11D) [3]","in vivo GHS [4, 12]",further results
CCCCCCCC(=O)O [Octanoic Acid],3.462 and 3.491 and 3.333,2.342,2.12,2.129,1.427 and 1.415 and 1.416,3.283 and 3.408 and 3.220,–,–
CCCCCCCN [n-Heptylamine],3.244 and 3.057 and 3.152,0.175,0.170,0.193,–,–,Cat. 1B/1C,solubility with water [5]: mostly insoluble with water
ClCCCCBr [1-Bromo-4-chlorobutane],–,2.849,2.948,2.869,–,–,–,"OD405 reading, 1:1000 ethanol solvent condition (FIG. 9B) ([6]; 4-hour exposure, 1-hour PNPP): 0.799; OD405 reading, ethanol solvent, 10 μL dose, 30-minute PNPP (FIG. 7A) ([7]; 10 μL into 90 μL): 3.349; OD405 reading, ethanol solvent, 50 μL dose, 30-minute PNPP (FIG. 7A) ([7]; 50 μL into 50 μL): 0.700"
CN(C)CCCNCCCN [Dimethyldipropylenetriamine],–,0.117,0.119,0.114,–,–,Cat. 1A,"Corrosive ([4]; Yes/No): Yes; in vivo GHS ([4]; Tables 1A-1C and 2): Cat. 1A; OD190 [8]: >3A; raw optical density reading (PNPP), with discs (FIG. 3A) ([9]; 1.25 mL reaction reagent (10,000 units)): 0.152 and 0.159 and 0.140; raw optical density reading (PNPP), without discs (FIG. 3B) ([9]; 1.25 mL reaction reagent): 0.138 and 0.176 and 0.133; raw optical density reading (PNPP), repeat without discs (FIG. 4) ([10]; 405 nm, 18 hours 37° C. exposure, PNPP 1 hour): 0.132 and 0.128 and 0.127; 10-minute PNPP incubation readings (FIG. 5A) [10, 13]: 3.500; 18-hour PNPP incubation readings (FIG. 5D) [10, 13]: 0.110; percent of phosphatase measured (optical density compared to the naïve condition), average ([11]; average of two readings): 20.6%; percent of phosphatase measured (optical density compared to the naïve condition) ([11]; single readings): 23.5% and 17.7%"
CC(C)N(C)C [Dimethylisopropylamine],3.466 and 3.502,0.244,0.226,0.295,3.354 and 3.466 and 3.502,2.926 and 2.922 and 2.852,Cat. 1B/1C,solubility with water [5]: mostly insoluble with water
Cc1ccc(C(C)C)cc1O,0.991 and 0.974 and 1.167,2.597,2.462,2.772,1.990 and 1.926,3.444 and 3.465 and 3.398,Cat. 1B/1C,–
"[K+].[OH-] [Potassium hydroxide (10%), Potassium hydroxide]",–,0.108,0.107,0.108,–,–,–,"raw optical density reading (PNPP), repeat without discs (FIG. 4) [10]: 0.123 and 0.124"
CSc1ccc(C=O)cc1,–,3.333,3.379,3.266,–,–,–,"OD405 reading, 1:100 ethanol solvent condition, 37° C. ([6]; 37° C.): 0.857; OD405 reading, 1:100 ethanol solvent condition, room temperature ([6]; room temperature): 2.243"
